From ChEMBL document CHEMBL3734721 (J Med Chem, 2015)
≈ marks a conversion by molar mass, not a printed value.

Key:
[1] = target: T1, 5-hydroxytryptamine receptor 6 (Homo sapiens, UniProt P50406); assay: Antagonist activity at human 5-HT6 receptor expressed in 1321N1 cells assessed as seretonin-induced cAMP by HTRF assay; assay type: functional, cell-based
Cytochrome P450 2D6 = Cytochrome P450 2D6 (Homo sapiens, UniProt P10635); assay: Inhibition of human CYP2D6 by LC-MS analysis; assay type: ADME
Sequence of Cytochrome P450 2D6 (P10635 whole entry): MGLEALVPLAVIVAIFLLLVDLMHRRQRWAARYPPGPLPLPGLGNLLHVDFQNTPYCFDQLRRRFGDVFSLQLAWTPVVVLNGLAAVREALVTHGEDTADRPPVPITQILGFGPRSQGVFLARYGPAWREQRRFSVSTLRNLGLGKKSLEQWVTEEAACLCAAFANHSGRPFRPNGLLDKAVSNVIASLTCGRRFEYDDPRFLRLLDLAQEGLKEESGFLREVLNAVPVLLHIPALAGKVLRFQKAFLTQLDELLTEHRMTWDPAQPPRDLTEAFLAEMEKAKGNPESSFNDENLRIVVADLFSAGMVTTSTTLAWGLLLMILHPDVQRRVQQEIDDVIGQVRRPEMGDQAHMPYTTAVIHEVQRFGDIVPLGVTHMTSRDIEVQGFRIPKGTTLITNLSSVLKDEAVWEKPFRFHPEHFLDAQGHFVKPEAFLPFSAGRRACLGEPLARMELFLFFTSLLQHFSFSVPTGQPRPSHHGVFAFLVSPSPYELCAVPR

[2] = target: 5-hydroxytryptamine receptor 7 (Homo sapiens, UniProt P34969); assay: Agonist activity at human wild-type 5-HT7 receptor expressed in HEK cells assessed as cAMP by HTRF assay; assay type: functional, cell-based, HEK293
Sequence of 5-hydroxytryptamine receptor 7 (P34969 whole entry): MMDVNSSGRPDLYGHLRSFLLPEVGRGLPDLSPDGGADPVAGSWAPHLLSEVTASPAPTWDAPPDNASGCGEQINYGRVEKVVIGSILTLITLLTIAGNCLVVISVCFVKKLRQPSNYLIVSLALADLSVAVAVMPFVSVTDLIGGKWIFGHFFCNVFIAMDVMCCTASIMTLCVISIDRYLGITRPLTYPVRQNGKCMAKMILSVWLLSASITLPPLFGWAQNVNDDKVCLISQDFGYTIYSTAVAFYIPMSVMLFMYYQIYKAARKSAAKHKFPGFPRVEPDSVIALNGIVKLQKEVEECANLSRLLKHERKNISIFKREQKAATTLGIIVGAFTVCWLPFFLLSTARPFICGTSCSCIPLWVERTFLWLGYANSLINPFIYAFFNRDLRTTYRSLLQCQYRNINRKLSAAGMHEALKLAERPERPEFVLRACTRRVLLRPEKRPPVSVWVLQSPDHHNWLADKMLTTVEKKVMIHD

[3] = Cmax in Swiss mouse brain at 5 mg/kg, sc; assay type: ADME, organism-based; design: dose 5 mg/kg, route subcutaneous
[4] = target: T2, Type-1 angiotensin II receptor (Homo sapiens, UniProt P30556); assay: Antagonist activity at human wild-type AGTR1 receptor expressed in CHO-K1 cells assessed as angiotensin-2-induced calcium by FDSS assay; assay type: functional, cell-based
T2 sequence (P30556 whole entry): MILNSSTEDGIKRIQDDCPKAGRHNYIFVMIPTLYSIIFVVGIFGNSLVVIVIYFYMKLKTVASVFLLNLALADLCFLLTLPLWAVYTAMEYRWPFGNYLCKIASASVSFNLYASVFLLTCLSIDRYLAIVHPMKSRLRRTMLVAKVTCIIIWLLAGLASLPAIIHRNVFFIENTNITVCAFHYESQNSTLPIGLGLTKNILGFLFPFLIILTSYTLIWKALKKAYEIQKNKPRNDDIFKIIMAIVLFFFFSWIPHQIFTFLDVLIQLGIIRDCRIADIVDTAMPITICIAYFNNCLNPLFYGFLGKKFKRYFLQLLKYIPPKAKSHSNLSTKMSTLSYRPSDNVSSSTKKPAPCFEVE

[5] = target: T3, Muscarinic acetylcholine receptor M1 (Homo sapiens, UniProt P11229); assay: Antagonist activity at human wild-type M1 receptor expressed in CHO-K1 cells assessed as acetylcholine-induced calcium by FDSS assay; assay type: functional, cell-based
T3 sequence (P11229 whole entry): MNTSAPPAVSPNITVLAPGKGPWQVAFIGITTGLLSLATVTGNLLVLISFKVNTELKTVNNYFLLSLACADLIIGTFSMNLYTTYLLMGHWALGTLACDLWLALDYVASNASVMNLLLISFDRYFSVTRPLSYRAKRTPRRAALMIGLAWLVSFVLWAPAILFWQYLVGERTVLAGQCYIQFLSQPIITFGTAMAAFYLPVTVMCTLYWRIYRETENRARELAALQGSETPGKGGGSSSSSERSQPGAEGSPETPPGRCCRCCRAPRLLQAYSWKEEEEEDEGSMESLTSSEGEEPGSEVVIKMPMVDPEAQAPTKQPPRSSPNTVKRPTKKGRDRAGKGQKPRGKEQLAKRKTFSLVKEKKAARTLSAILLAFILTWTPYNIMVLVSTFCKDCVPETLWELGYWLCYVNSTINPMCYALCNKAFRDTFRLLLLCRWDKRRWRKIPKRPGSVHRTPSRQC

[6] = target: T1, 5-hydroxytryptamine receptor 6; assay: Agonist activity at human 5-HT6 receptor expressed in 1321N1 cells assessed as cAMP by HTRF assay; assay type: functional, cell-based
human MDR1 = assay: Permeability across apical to basolateral in MDCK expressing human MDR1 at 5 uM by LC-MS/MS method; assay type: ADME, cell-based, Canis lupus familiaris; conditions: dog, read-out: permeability
[7] = Kinetic solubility of compound in phosphate buffer at pH 7.4 for 4 hrs by UPLC/UV analysis; assay type: physicochemical; conditions: read-out: Kinetic_solubility
[8] = target: T4, Alpha-2A adrenergic receptor (Homo sapiens, UniProt P08913); assay: Antagonist activity at human wild-type alpha 2A receptor expressed in CHO-K1 cells assessed as epinephrine-induced cAMP by HTRF assay; assay type: functional, cell-based
T4 sequence (P08913 whole entry): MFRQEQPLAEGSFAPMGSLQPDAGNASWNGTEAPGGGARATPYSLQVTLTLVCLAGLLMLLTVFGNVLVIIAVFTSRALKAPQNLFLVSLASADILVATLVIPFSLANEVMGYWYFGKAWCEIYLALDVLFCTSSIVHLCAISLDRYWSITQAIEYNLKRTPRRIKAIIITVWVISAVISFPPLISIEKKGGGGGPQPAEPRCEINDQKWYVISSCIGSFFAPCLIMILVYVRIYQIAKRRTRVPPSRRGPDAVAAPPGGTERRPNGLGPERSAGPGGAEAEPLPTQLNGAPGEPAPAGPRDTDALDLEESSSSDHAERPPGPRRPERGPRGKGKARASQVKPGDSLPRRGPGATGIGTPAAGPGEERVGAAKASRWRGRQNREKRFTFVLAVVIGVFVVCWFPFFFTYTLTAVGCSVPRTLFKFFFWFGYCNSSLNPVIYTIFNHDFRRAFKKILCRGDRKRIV

D(2) dopamine receptor = D(2) dopamine receptor (Homo sapiens, UniProt P14416); assay: Antagonist activity at human wild-type D2 receptor expressed in CHO-K1 cells assessed as dopamine-induced cAMP by HTRF assay; assay type: functional, cell-based
Sequence of D(2) dopamine receptor (P14416 whole entry): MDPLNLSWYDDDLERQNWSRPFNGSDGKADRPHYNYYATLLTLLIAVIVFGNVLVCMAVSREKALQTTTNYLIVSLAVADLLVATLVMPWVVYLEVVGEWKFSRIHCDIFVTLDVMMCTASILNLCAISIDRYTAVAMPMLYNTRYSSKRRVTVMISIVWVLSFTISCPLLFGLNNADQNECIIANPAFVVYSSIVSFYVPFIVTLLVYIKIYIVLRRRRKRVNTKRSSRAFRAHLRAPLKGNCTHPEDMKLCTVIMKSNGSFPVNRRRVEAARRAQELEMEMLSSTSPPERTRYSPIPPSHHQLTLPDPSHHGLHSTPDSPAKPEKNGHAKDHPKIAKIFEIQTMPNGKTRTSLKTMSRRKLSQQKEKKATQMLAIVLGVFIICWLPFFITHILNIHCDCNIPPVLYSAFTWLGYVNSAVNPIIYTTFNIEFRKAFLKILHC

[9] = target: Muscarinic acetylcholine receptor M3 (Homo sapiens, UniProt P20309); assay: Agonist activity at human wild-type M3 receptor expressed in CHO-K1 cells assessed as calcium level by FDSS assay; assay type: functional, cell-based
Sequence of Muscarinic acetylcholine receptor M3 (P20309 whole entry): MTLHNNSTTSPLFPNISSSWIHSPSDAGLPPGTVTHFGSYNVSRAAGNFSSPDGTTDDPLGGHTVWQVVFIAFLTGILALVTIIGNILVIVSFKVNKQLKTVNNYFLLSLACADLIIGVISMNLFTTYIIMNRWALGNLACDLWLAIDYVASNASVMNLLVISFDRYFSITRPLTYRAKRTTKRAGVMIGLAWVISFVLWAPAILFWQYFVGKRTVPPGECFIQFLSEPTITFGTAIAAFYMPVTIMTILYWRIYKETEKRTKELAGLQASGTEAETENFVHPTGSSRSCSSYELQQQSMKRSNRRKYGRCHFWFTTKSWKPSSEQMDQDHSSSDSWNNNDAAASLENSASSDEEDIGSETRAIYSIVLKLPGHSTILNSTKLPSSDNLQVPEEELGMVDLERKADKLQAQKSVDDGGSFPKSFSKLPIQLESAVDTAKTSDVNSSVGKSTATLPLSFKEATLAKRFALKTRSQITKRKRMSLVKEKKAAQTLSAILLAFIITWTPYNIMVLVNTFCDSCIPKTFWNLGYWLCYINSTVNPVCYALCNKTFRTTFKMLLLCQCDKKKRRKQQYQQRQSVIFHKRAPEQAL

Adenosine receptor A3 = target: T5, Adenosine receptor A3 (Homo sapiens, UniProt P0DMS8); assay: Antagonist activity at human wild-type A3 receptor expressed in CHO-K1 cells assessed as IB MECA-induced cAMP by HTRF assay; assay type: functional, cell-based
T5 sequence (P0DMS8 whole entry): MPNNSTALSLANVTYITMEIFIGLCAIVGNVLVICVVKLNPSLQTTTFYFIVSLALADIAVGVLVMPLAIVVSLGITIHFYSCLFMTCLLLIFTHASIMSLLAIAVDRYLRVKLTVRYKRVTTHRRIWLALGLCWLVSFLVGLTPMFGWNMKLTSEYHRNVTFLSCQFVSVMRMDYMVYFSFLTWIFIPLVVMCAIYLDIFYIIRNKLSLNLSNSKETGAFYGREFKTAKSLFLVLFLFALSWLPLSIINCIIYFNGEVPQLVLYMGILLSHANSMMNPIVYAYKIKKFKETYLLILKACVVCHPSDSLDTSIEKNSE

[10] = target: 5-hydroxytryptamine receptor 1A (Homo sapiens, UniProt P08908); assay: Antagonist activity at human 5-HT1A receptor expressed in CHO-K1 cells assessed as seretonin-induced cAMP level by HTRF assay; assay type: functional, cell-based
Sequence of 5-hydroxytryptamine receptor 1A (P08908 whole entry): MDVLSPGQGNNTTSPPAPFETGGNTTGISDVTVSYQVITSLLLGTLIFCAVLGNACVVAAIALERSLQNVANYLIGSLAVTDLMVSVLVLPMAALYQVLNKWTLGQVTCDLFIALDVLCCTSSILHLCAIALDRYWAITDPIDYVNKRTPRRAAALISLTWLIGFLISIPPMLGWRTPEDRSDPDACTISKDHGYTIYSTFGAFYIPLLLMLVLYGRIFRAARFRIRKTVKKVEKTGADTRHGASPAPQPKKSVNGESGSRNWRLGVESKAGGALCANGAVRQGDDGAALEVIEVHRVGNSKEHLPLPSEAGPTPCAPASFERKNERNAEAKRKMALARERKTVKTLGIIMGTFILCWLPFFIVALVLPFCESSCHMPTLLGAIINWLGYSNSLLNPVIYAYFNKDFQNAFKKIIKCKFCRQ

[11] = Intrinsic clearance in mouse liver microsomes at 1 uM by HPLC/MS/MS analysis; assay type: ADME; conditions: read-out: CLH
[12] = target: 5-hydroxytryptamine receptor 1B (Homo sapiens, UniProt P28222); assay: Antagonist activity at human 5-HT1B receptor expressed in CHO-K1 cells assessed as seretonin-induced cAMP level by HTRF assay; assay type: functional, cell-based
Sequence of 5-hydroxytryptamine receptor 1B (P28222 whole entry): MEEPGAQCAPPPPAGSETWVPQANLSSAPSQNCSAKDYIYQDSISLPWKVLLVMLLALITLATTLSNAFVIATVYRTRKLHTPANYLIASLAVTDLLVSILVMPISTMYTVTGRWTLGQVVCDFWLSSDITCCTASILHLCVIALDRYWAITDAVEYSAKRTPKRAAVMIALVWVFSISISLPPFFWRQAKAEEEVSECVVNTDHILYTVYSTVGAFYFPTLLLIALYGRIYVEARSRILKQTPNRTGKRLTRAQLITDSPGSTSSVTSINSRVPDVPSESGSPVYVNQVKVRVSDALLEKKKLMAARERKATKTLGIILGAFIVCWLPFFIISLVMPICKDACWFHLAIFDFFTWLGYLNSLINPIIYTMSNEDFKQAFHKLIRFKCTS

[13] = target: Kappa-type opioid receptor (Homo sapiens, UniProt P41145); assay: Agonist activity at human wild-type opioid-kappa 1 receptor expressed in CHO-K1 cells assessed as cAMP level by HTRF assay; assay type: functional, cell-based
Sequence of Kappa-type opioid receptor (P41145 whole entry): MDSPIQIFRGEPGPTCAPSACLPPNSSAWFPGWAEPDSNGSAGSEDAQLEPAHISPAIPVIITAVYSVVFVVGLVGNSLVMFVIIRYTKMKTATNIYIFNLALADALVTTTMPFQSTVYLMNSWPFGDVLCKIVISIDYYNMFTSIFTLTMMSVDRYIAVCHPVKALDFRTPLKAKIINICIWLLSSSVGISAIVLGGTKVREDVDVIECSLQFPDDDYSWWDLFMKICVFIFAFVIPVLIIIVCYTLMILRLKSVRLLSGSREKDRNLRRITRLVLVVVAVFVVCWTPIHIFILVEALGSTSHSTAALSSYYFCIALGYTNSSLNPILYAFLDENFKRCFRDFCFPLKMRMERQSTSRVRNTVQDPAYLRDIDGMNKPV

T1 sequence (P50406 whole entry): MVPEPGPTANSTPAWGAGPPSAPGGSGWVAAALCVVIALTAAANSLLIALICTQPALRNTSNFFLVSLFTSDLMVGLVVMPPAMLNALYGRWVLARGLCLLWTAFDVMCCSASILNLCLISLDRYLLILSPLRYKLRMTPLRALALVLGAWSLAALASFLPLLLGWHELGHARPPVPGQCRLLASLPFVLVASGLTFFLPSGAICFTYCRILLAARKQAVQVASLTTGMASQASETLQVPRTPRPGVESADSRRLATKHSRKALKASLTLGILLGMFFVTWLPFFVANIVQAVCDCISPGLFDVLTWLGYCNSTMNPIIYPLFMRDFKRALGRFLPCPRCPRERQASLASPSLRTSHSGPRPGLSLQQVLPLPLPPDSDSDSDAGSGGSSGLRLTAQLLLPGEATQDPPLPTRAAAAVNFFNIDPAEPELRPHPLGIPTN

IC50 [1]	IC50 (Cytochrome P450 2D6)	EC50 [2]	Cmax [3]	IC50 [4]	IC50 [5]	EC50 [6]	Papp A→B at 5 µM (human MDR1)	solubility kinetic at 4 h [7]	IC50 [8]	IC50 (D(2) dopamine receptor)	EC50 [9]	IC50 (Adenosine receptor A3)	IC50 [10]	microsomal CLint at 1 µM [11]	IC50 [12]	EC50 [13]	SMILES
> 5.01 µM	2.51 µM	> 5.01 µM	62 µM	> 5.01 µM	> 5.01 µM	> 5.01 µM	2.3 ×10⁻⁶ cm/s	647 µM (≈ 168 µg/mL)	> 5.01 µM	> 5.01 µM	> 5.01 µM	> 5.01 µM	2 µM	175 µL/min/mg	> 5.01 µM	> 5.01 µM	CB1C=Cc2c(cccc2OCC(O)CN(C)C)N1 (centres undefined)
> 5.01 µM	0.398 µM	> 5.01 µM	7 µM	> 5.01 µM	> 5.01 µM	> 5.01 µM	1.3 ×10⁻⁶ cm/s	699 µM (≈ 192 µg/mL)	> 5.01 µM	> 5.01 µM	> 5.01 µM	> 5.01 µM	> 5.01 µM	> 346 µL/min/mg	> 5.01 µM	> 5.01 µM	CB1C=Cc2cccc(OCC(O)CNC(C)C)c2N1 (centres undefined)
